The text below walks through data of patent publication US20130316963A1, “INNATE DEFENCE REGULATORY PEPTIDE COMPOSITIONS FOR TREATMENT OF ARTHRITIS” (UNIVERSITY OF MANITOBA, priority 2010, published 2013).

Holding throughout (format): cell-based
The test system of test [1] is human FLS cells. As to the kind of experiment: MMP-3 production in tissue culture supernatants of cytokine-stimulated human FLS cells (ELISA). The following applies: 24 hr. As for the experimental part:
Synovial tissues were obtained from patients with OA in accordance to a protocol by the Institutional Review Board at the University of Manitoba. FLS cells were isolated from the synovial tissues following the procedure taught by Kammouni et al. (2007, Regulation of apoptosis in fibroblast-like synoviocytes by the hypoxia-induced Bcl-2 family member Bcl-2/adenovirus E1B 19-kd protein-interacting protein 3. Arthritis Rheum. 56:2854-2863). Briefly, the tissues were digested with 1 mg/ml collagenase and 0.05 mg/ml hyaluronidase (both obtained from Sigma-Aldrich Co., Oakville, ON, Canada) in Hanks' balanced salt solution (Gibco; Invitrogen Canada Inc., Burlington, ON, Canada) for 1-2 hours at 37° C. Cells were washed and cultured in DMEM media (Gibco) supplemented with sodium pyruvate and non-essential amino acids (referred to as complete DMEM media henceforth), containing 10% (v/v) fetal bovine serum (FBS) in a humidified incubator at 37° C. and 10% CO2. Isolated human FLS cells (ex-vivo) were seeded at 2×10^4 cells/ml, either 0.5 ml per well in 48-well tissue culture plate, or 3 ml per well in 6-well tissue culture plate as required and cultured in complete DMEM media containing 10% (v/v) FBS overnight. The following day the culture media was changed to complete DMEM containing 1% (v/v) FBS before the addition of the various stimulants. The FLS cells were not used beyond passage five. […] Cellular cytotoxicity was evaluated by monitoring the release of lactate dehydrogenase (LDH) employing a colorimetric detection kit (Roche Diagnostics, Laval, QC, Canada).
Tissue culture supernatants were harvested after stimulation of human FLS cells with various cytokines (as indicated) with and without IDR peptides after 24 hr. […] Production of MMP-3 in the tissue culture supernatants was monitored using Quantikine® human MMP-3 (total) ELISA kit (Quantikine is a registered trademark of R&D Systems, Inc. Minneapolis, Minn., USA) as per the manufacturer's instructions. Production of pro-inflammatory cytokines IL-1β, IL-6, IL-10, TNF, IL-12p70 and chemokines IL-8, RANTES, MIG, MCP-1, IP-10 in the tissue culture supernatants was determined using preconfigured multiplex BD Cytometric Bead Array (CBA) human inflammation and chemokine kits respectively, employing the FACS Calibur flow cytometer (BD Biosciences, Mississauga, ON, Canada) as per the manufacture's instructions. The concentration of the cytokines or chemokines in the tissue culture supernatants was evaluated by establishing a standard curve with serial dilutions of the recombinant human cytokines or chemokines as required. […]
For orientation: ELISA stands for enzyme-linked immunosorbent assay.

Test [2] relates to human FLS cells. Briefly: IL-IRA production in human FLS cells stimulated with IL-1β (ELISA). The following applies: 48 hr, FIG. 5. As for the experimental part:
Tissue culture supernatants were harvested from human FLS cells after stimulation for 48 hr with IL-1β with and without IDR-1002. The supernatants were centrifuged at 1500×g for 7 min to obtain cell-free samples. The samples were aliquoted and stored at −20° C. until further use. Production of IL-IRA in the tissue culture supernatants was monitored using Quantikine® human […] ELISA following the manufacturer's instructions. […] Results shown are an average of at least three independent biological experiments performed with cells isolated from synovial tissues obtained from independent donors±standard error (*p<0.05, **p<0.01).

In test [3] the test system is human FLS cells. As to the kind of experiment: Transcriptional responses for IL-IRA and SIGIRR in human FLS cells (quantitative real-time PCR). The following applies: FIG. 6; for IL-IRA transcription / SIGIRR transcription: in comparison to IL-1β alone, 2 hrs. As for the experimental part: Additionally, transcriptional responses for IL-IRA and SIGIRR in these cell cultures were evaluated by quantitative real-time PCR after 2 hrs.

With VQRWLIVWRIRK (IDR-1002 peptide), the “suppression of IL-1β-induced MMP-3” value in the test with human FLS cells [1] (IDR-1002 100 μg/ml for 45 min prior to IL-1β 10 ng/ml, FIG. 2A) came to 80%. Besides, the “suppression of IL-1β-induced MMP-3 production” value in the test on human FLS cells [1] (IL-1β 10 ng/ml, peptide added at time of stimulation, IDR-1002 100 μg/ml, IDR-1 200 μg/ml, FIG. 1A) is reported as 70±8%. In addition, the “suppression of MMP-3 production induced by cytomix (TNF-α+IL-1β)” value with human FLS cells [1] (TNF-α+IL-1β 10 ng/ml each, IDR-1002 100 μg/ml, FIG. 1C) worked out at 56±10%. For the same sequence, in the test on human FLS cells [1] (no cytokine, vs un-stimulated control FLS cells, IDR-1002 100 μg/ml), the “MMP-3 production induced by peptide by itself” value is listed as “did not induce MMP-3 production above the background amount”. In the test with human FLS cells [2], the “IL-IRA production with IL-1β in the presence of IDR-1002, relative to IL-1β in the presence of IDR-1” value is listed as “more than twice as much IL-IRA”. For the same sequence, the “IL-IRA production with IL-1β in the presence of IDR-1002, relative to IL-1β alone” value with human FLS cells [2] (IL-1β alone about 150 pg/ml) was “more than twice as much IL-IRA”. In addition, the “IL-IRA production by IDR-1002 alone” value with human FLS cells [2] (no IL-1β) is “did not stimulate production of IL-IRA”. Further, in the test with human FLS cells [3] (IDR-1002 alone), the IL-IRA transcription result is “significantly increased” and the SIGIRR transcription entry is “significantly increased”. Further, in the test on human FLS cells [3] (IDR-1002 plus IL-1β), the IL-IRA transcription entry was “significantly increased” and the SIGIRR transcription entry is “significantly increased”. In addition, the “SIGIRR gene expression induced by IDR-1002 relative to cells stimulated with IL-1β” value in the test on human FLS cells [3] (human FLS) is “more than 9 fold”.
